Data from patent US20240174624A1, “CHIRAL N-(1,3,4-OXADIAZOLE-2-YL)PHENYL CARBOXYLIC ACID AMIDES AND THEIR USE AS HERBICIDES” (Bayer Aktiengesellschaft, priority 2021, published 2024).

Assays:
STEME [1] = test: Pre-emergence herbicidal action; assay type: in vivo, Stellaria media; details: comparative experiment
Source text: (§1) Seeds of monocotyledonous and dicotyledonous weed plants and crop plants are laid out in sandy loam soil in wood-fibre pots and covered with soil. The compounds of the invention, formulated in the form of wettable powders (WP) or as emulsion concentrates (EC), are then applied to the surface of the covering soil in the form of an aqueous suspension or emulsion at a water application rate equivalent to 600 to 800 l/ha, with addition of 0.2% wetting agent. After the treatment, the pots are placed in a greenhouse and kept under good growth conditions for the trial plants. The damage to the test plants is scored visually after a test period of 3 weeks by comparison with untreated controls (herbicidal activity in percent (%): 100% activity=the plants have died, 0% activity=like control plants). […] The tables below illustrate, in an illustrative manner, the post-emergence herbicidal action of the compounds of the invention, the herbicidal activity being stated in percent. In the experiments that follow, the herbicidal action of the compounds of the invention and that of the corresponding known racemic compounds closest from WO2012126932 and WO2018202535 were compared under the above-specified conditions by the pre-emergence and post-emergence method. The example numbers given in the tables relate to the compounds disclosed in the respective documents.

VERPE [2] = test: Pre-emergence herbicidal action; assay type: in vivo, Veronica persica; details: for Herbicidal action against VERPE: comparative experiment; for Pre-emergence action against VERPE: scored after 3 weeks
Source text: as §1

VIOTR [3] = test: Post-emergence herbicidal action; assay type: in vivo, Viola tricolor; details: for Post-emergence action against VIOTR: assessed after about 3 weeks; for Herbicidal action against VIOTR: comparative experiment
Procedure: (§2) Seeds of monocotyledonous and dicotyledonous weed and crop plants are laid out in sandy loam soil in wood-fibre pots, covered with soil and cultivated in a greenhouse under good growth conditions. 2 to 3 weeks after sowing, the test plants are treated at the one-leaf stage. The compounds of the invention, formulated in the form of wettable powders (WP) or as emulsion concentrates (EC), are then sprayed onto the green parts of the plants in the form of an aqueous suspension or emulsion at a water application rate equating to 600 to 800 l/ha, with addition of 0.2% wetting agent. After the test plants have been left to stand in the greenhouse under optimal growth conditions for about 3 weeks, the action of the preparations is assessed visually in comparison to untreated controls (herbicidal action in percent (%): 100% activity=the plants have died, 0% activity=like control plants). […] The tables below illustrate, in an illustrative manner, the post-emergence herbicidal action of the compounds of the invention, the herbicidal activity being stated in percent. In the experiments that follow, the herbicidal action of the compounds of the invention and that of the corresponding known racemic compounds closest from WO2012126932 and WO2018202535 were compared under the above-specified conditions by the pre-emergence and post-emergence method. The example numbers given in the tables relate to the compounds disclosed in the respective documents.

SETVI [4] = test: Pre-emergence herbicidal action; assay type: in vivo, Setaria viridis; details: for Pre-emergence action against SETVI: scored after 3 weeks
Source text: as §1

ECHCG [5] = test: Pre-emergence herbicidal action; assay type: in vivo, Echinochloa crus-galli; details: scored after 3 weeks
Source text: as §1, with “percent.” for “percent. In the experiments that follow, the herbicidal action of the compounds of the invention and that of the corresponding known racemic compounds closest from WO2012126932 and WO2018202535 were compared under the above-specified conditions by the pre-emergence and post-emergence method. The example numbers given in the tables relate to the compounds disclosed in the respective documents.”

MATIN [6] = test: Post-emergence herbicidal action; assay type: in vivo, Matricaria inodora; details: assessed after about 3 weeks
Procedure: as §2, with “percent.” for “percent. In the experiments that follow, the herbicidal action of the compounds of the invention and that of the corresponding known racemic compounds closest from WO2012126932 and WO2018202535 were compared under the above-specified conditions by the pre-emergence and post-emergence method. The example numbers given in the tables relate to the compounds disclosed in the respective documents.”

ZEAMX = test: Pre-emergence damage to crop plants; assay type: in vivo, Zea mays; details: comparative experiment
Source text: as §1

PHBPU [7] = test: Post-emergence herbicidal action; assay type: in vivo, Pharbitis purpurea; details: 20 g/ha, assessed after about 3 weeks
Procedure: as §2, with “percent.” for “percent. In the experiments that follow, the herbicidal action of the compounds of the invention and that of the corresponding known racemic compounds closest from WO2012126932 and WO2018202535 were compared under the above-specified conditions by the pre-emergence and post-emergence method. The example numbers given in the tables relate to the compounds disclosed in the respective documents.”

ALOMY = test: Pre-emergence herbicidal action; assay type: in vivo, Alopecurus myosuroides
Source text: as §1

POLCO = test: Pre-emergence herbicidal action; assay type: in vivo, Polygonum convolvulus; details: 320 g a.i./ha, comparative experiment
Source text: as §1

CYPES [8] = test: Post-emergence herbicidal action; assay type: in vivo, Cyperus esculentus; details: 20 g a.i./ha, comparative experiment
Procedure: as §2, with “The example numbers given in the tables relate to the compounds disclosed in the respective documents.” left out

VERPE [9] = test: Post-emergence herbicidal action; assay type: in vivo, Veronica persica
Procedure: as §2

VIOTR [10] = test: Pre-emergence herbicidal action; assay type: in vivo, Viola tricolor; details: 80 g/ha, scored after 3 weeks
Source text: as §1, with “percent.” for “percent. In the experiments that follow, the herbicidal action of the compounds of the invention and that of the corresponding known racemic compounds closest from WO2012126932 and WO2018202535 were compared under the above-specified conditions by the pre-emergence and post-emergence method. The example numbers given in the tables relate to the compounds disclosed in the respective documents.”

MATIN [11] = test: Pre-emergence herbicidal action; assay type: in vivo, Matricaria inodora; details: for Pre-emergence action against MATIN: scored after 3 weeks
Source text: as §1

AMARE [12] = test: Pre-emergence herbicidal action; assay type: in vivo, Amaranthus retroflexus; details: scored after 3 weeks
Source text: as §1, with “percent.” for “percent. In the experiments that follow, the herbicidal action of the compounds of the invention and that of the corresponding known racemic compounds closest from WO2012126932 and WO2018202535 were compared under the above-specified conditions by the pre-emergence and post-emergence method. The example numbers given in the tables relate to the compounds disclosed in the respective documents.”

PHBPU [13] = test: Pre-emergence herbicidal action; assay type: in vivo, Pharbitis purpurea; details: 80 g/ha, scored after 3 weeks
Source text: as §1, with “percent.” for “percent. In the experiments that follow, the herbicidal action of the compounds of the invention and that of the corresponding known racemic compounds closest from WO2012126932 and WO2018202535 were compared under the above-specified conditions by the pre-emergence and post-emergence method. The example numbers given in the tables relate to the compounds disclosed in the respective documents.”

AMARE [14] = test: Post-emergence herbicidal action; assay type: in vivo, Amaranthus retroflexus; details: assessed after about 3 weeks
Procedure: as §2, with “percent.” for “percent. In the experiments that follow, the herbicidal action of the compounds of the invention and that of the corresponding known racemic compounds closest from WO2012126932 and WO2018202535 were compared under the above-specified conditions by the pre-emergence and post-emergence method. The example numbers given in the tables relate to the compounds disclosed in the respective documents.”

ECHCG [15] = test: Post-emergence herbicidal action; assay type: in vivo, Echinochloa crus-galli; details: for Post-emergence action against ECHCG: assessed after about 3 weeks
Procedure: as §2

AVEFA = test: Pre-emergence herbicidal action; assay type: in vivo, Avena fatua
Source text: as §1

CYPES [16] = test: Pre-emergence herbicidal action; assay type: in vivo, Cyperus esculentus; details: 20 g a.i./ha, comparative experiment
Source text: as §1

SETVI [17] = test: Post-emergence herbicidal action; assay type: in vivo, Setaria viridis; details: for Herbicidal action against SETVI: 5 g a.i./ha, comparative experiment; for Post-emergence action against SETVI: assessed after about 3 weeks
Procedure: as §2

STEME [18] = test: Post-emergence herbicidal action; assay type: in vivo, Stellaria media; details: 5 g a.i./ha, comparative experiment
Procedure: as §2

TRZAS = test: Post-emergence damage to crop plants; assay type: in vivo, Triticum aestiva; details: 5 g a.i./ha, comparative experiment
Procedure: as §2

GLXMA = test: Post-emergence damage to crop plants; assay type: in vivo, Glycine max; details: 5 g a.i./ha, comparative experiment
Procedure: as §2, with “The example numbers given in the tables relate to the compounds disclosed in the respective documents.” left out

BRSNW = test: Pre-emergence damage to crop plants; assay type: in vivo, Brassica napus; details: 20 g a.i./ha, comparative experiment
Source text: as §1

[19] = 20 g a.i./ha, comparative experiment

Compound: Cc1nnc(NC(=O)c2ccc(C(F)(F)F)c([S+](C)[O-])c2Cl)o1 (stereo in doubt) [Example I-5, 2-chloro-N-(5-methyl-1,3,4-oxadiazol-2-yl)-3-[(S)-methylsulfinyl]-4-(trifluoromethyl)benzamide]
- Herbicidal action against STEME (STEME [1]; 20 g a.i./ha): 100%
- Herbicidal action against STEME (STEME [1]; 80 g a.i./ha): 100%
- Herbicidal action against STEME (STEME [1]; 320 g a.i./ha): 100%
- Herbicidal action against VERPE (VERPE [2]; 20 g a.i./ha): 30%
- Pre-emergence action against VERPE (VERPE [2]; 20 g/ha): 80%
- Herbicidal action against VERPE (VERPE [2]; 80 g a.i./ha): 100%
- Pre-emergence action against VERPE (VERPE [2]; 80 g/ha): 100%
- Post-emergence action against VIOTR (VIOTR [3]; 5 g/ha): 100%
- Post-emergence action against VIOTR (VIOTR [3]; 20 g/ha): 100%
- Pre-emergence action against SETVI (SETVI [4]; 5 g/ha): 80%
- Herbicidal action against SETVI (SETVI [4]; [19]): 100%
- Pre-emergence action against SETVI (SETVI [4]; 20 g/ha): 100%
- Pre-emergence action against SETVI (SETVI [4]; 80 g/ha): 100%
- Pre-emergence action against ECHCG (ECHCG [5]; 20 g/ha): 100%
- Pre-emergence action against ECHCG (ECHCG [5]; 80 g/ha): 100%
- Post-emergence action against MATIN (MATIN [6]; 5 g/ha): 80%
- Post-emergence action against MATIN (MATIN [6]; 20 g/ha): 90%
- Herbicidal action against ZEAMX (ZEAMX; 320 g a.i./ha): 40%
- Post-emergence action against PHBPU (PHBPU [7]): 90%
- Herbicidal action against ALOMY (ALOMY; [19]): 60%
- Pre-emergence action against ALOMY (ALOMY; 80 g/ha, scored after 3 weeks): 80%
- Herbicidal action against POLCO (POLCO): 80%
- Herbicidal action against CYPES (CYPES [8]): 80%
- Herbicidal action against VERPE (VERPE [9]; 5 g a.i./ha, comparative experiment): 40%
- Post-emergence action against VERPE (VERPE [9]; 20 g/ha, assessed after about 3 weeks): 90%
- Pre-emergence action against VIOTR (VIOTR [10]): 100%
- Herbicidal action against MATIN (MATIN [11]; [19]): 90%
- Pre-emergence action against MATIN (MATIN [11]; 20 g/ha): 80%
- Pre-emergence action against MATIN (MATIN [11]; 80 g/ha): 100%
- Pre-emergence action against AMARE (AMARE [12]; 20 g/ha): 90%
- Pre-emergence action against AMARE (AMARE [12]; 80 g/ha): 100%
- Pre-emergence action against PHBPU (PHBPU [13]): 100%
- Post-emergence action against AMARE (AMARE [14]; 5 g/ha): 100%
- Post-emergence action against AMARE (AMARE [14]; 20 g/ha): 100%
- Post-emergence action against ECHCG (ECHCG [15]; 5 g/ha): 90%
- Post-emergence action against ECHCG (ECHCG [15]; 20 g/ha): 100%
- Herbicidal action against AVEFA (AVEFA; [19]): 90%
- Pre-emergence action against AVEFA (AVEFA; 80 g/ha, scored after 3 weeks): 80%
- Herbicidal action against CYPES (CYPES [16]): 90%
- Herbicidal action against SETVI (SETVI [17]): 100%
- Post-emergence action against SETVI (SETVI [17]; 5 g/ha): 80%
- Post-emergence action against SETVI (SETVI [17]; 20 g/ha): 100%
- Herbicidal action against STEME (STEME [18]): 80%

Compound: Cc1nnc(NC(=O)c2ccc(C(F)F)c([S+](C)[O-])c2Cl)o1 (racemic) [7-48 from WO2018202535, 2-chloro-N-(5-methyl-1,3,4-oxadiazol-2-yl)-3-[(rac)-methylsulfinyl]-4-(difluoromethyl)benzamide, reference compound]
- Damage to TRZAS (TRZAS): 40%
- Herbicidal action against VIOTR (VIOTR [3]; 5 g a.i./ha): 60%
- Herbicidal action against VIOTR (VIOTR [3]; 20 g a.i./ha): 80%
- Damage to ZEAMX (ZEAMX; 80 g a.i./ha): 50%
- Damage to GLXMA (GLXMA): 60%
- Damage to BRSNW (BRSNW): 80%
- Herbicidal action against ECHCG (ECHCG [15]; [19]): 80%
- Herbicidal action against SETVI (SETVI [17]): 80%
